In patent US20220289732A1, “HETEROCYCLIC WDR5 INHIBITORS AS ANTI-CANCER COMPOUNDS” (NOVARTIS AG, priority 2019, published 2022):
pIC50: −log10 of the molar value.

Experiments:
WDR5 = WDR5 (Homo sapiens, UniProt P61964); test: WDR5 HTRF binding assay; conditions: read-out: (a) WDR5 HTRF Pep Val v.1[Inhibitor/IC50]Qualified AC50
Method in brief: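 In this HTRF displacement format, biotinylated MLL1 WIN peptide (3762-3773, 20 nM) binds WDR5 (6 nM) in 25 mM Hepes pH 7.5 with 100 mM NaCl, 2 mM DTT and 0.1% BSA for 20 min at rt. Detection used streptavidin-APC/anti-His-Eu for 1 hr. IC50 came from dose-response fits of normalized signal; 15 nM biotin-PEG-His peptide served as counter assay.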

[1] = biological target: wild type MLL1 four-member complex (MLL1-4C) (Homo sapiens, UniProt P61964); test: MLL1 LC-MS assay (SAH production); format: biochemical; conditions: read-out: (b) MLL LCMS Peptide Val.v.1 Qualified AC50
Method in brief: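 SAH formation, measured by LC-MS/MS after a TFA quench containing d4-SAH, was normalised to no-compound and no-enzyme controls and fitted to a dose-response curve for IC50. Reactions ran 120 min at rt (pH 8.0 Tris buffer) with final 30 nM MLL1 four-member complex, 2.5 μM SAM and 10 μM biotinylated H3[1-21] peptide, after a 20-min enzyme/SAM-compound preincubation.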

MV4-11 cells = test: MV4-11 6-day cell growth CTG (CellTiter-Glo) assay; format: cell-based; conditions: Homo sapiens, MV4-11, 144 h, 6 days, read-out: (c) MLL/WDR5 cell proliferation assay//MLL/WDR5 proliferation MV4:11 Qualified AC50
Method in brief: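 IC50 comes from a dose-response fit of % inhibition relative to DMSO controls, with viable cells measured by CellTiter-Glo luminescence. Compounds were tested over 12 points (1:3, starting at 50 μM final) on MV4-11 cells plated at 300/well and grown 6 days.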

| SMILES | pIC50 (WDR5) | AC50 [1] | AC50 (MV4-11 cells) |
| --- | --- | --- | --- |
| CCOc1cc(CN2CCc3c(cc(CCN(C)CC)cc3-c3cc(C)ncc3F)C2=O)ncc1C#N [Example 154, 4-ethoxy-6-((7-(2-(ethyl(methyl)amino)ethyl)-5-(5-fluoro-2-methylpyridin-4-yl)-1-oxo-3,4-dihydroisoquinolin-2(1H)-yl)methyl)nicotinonitrile] | 6.00 to 8.00 | 10 to 1000 nM | 10 to 1000 nM |
| CCOc1cc(CN2CCc3c(cc(CCN(C)CC)cc3-c3ccc(N)nc3C)C2=O)ncc1C#N [Example 155, 6-((5-(6-amino-2-methylpyridin-3-yl)-7-(2-(ethyl(methyl)amino)ethyl)-1-oxo-3,4-dihydroisoquinolin-2(1H)-yl)methyl)-4-ethoxynicotinonitrile] | 6.00 to 8.00 | 10 to 1000 nM | 10 to 1000 nM |
| CCOc1cc([C@H](C)N2CCc3c(cc(CCN(C)CC)cc3-c3cncn3C)C2=O)ncc1C#N [Example 157, (S)-4-ethoxy-6-(1-(7-(2-(ethyl(methyl)amino)ethyl)-5-(1-methyl-1H-imidazol-5-yl)-1-oxo-3,4-dihydroisoquinolin-2(1H)-yl)ethyl)nicotinonitrile] | 6.00 to 8.00 | 10 to 1000 nM | 1000 to 25000 nM |
| CCOc1cc(C(C)N2CCc3c(cc(CCN(C)CC)cc3C3CC3)C2=O)ncc1C#N (stereo not drawn) [Example 158, 6-(1-(5-cyclopropyl-7-(2-(ethyl(methyl)amino)ethyl)-1-oxo-3,4-dihydroisoquinolin-2(1H)-yl)ethyl)-4-ethoxynicotinonitrile] | 6.00 to 8.00 | 10 to 1000 nM | 1000 to 25000 nM |
| CCOc1cc([C@H](C)N2CCc3c(cc(CCN(C)CC)cc3-c3ccn(C)c(=O)c3C)C2=O)ncc1C#N [Example 161, (S)-6-(1-(5-(1,3-dimethyl-2-oxo-1,2-dihydropyridin-4-yl)-7-(2-(ethyl(methyl)amino)ethyl)-1-oxo-3,4-dihydroisoquinolin-2(1H)-yl)ethyl)-4-ethoxynicotinonitrile] | > 8.00 | 10 to 1000 nM | 10 to 1000 nM |
| CCOc1cc(CN2CCc3c(cc(CCN(C)CC)cc3-c3cc(OC)ncc3C)C2=O)ncc1C#N [Example 164, 4-ethoxy-6-((7-(2-(ethyl(methyl)amino)ethyl)-5-(2-methoxy-5-methylpyridin-4-yl)-1-oxo-3,4-dihydroisoquinolin-2(1H)-yl)methyl)nicotinonitrile] | > 8.00 | 10 to 1000 nM | 10 to 1000 nM |
| CCOc1cc([C@H](C)N2CCc3c(cc(CCN(C)CC)cc3-c3cn(CC)nc3C(F)F)C2=O)ncc1C#N [Example 165, (S)-6-(1-(5-(3-(difluoromethyl)-1-ethyl-1H-pyrazol-4-yl)-7-(2-(ethyl(methyl)amino)ethyl)-1-oxo-3,4-dihydroisoquinolin-2(1H)-yl)ethyl)-4-ethoxynicotinonitrile] | > 8.00 | 10 to 1000 nM | 10 to 1000 nM |
| CCOc1cc([C@H](C)N2CCc3c(cc(CCN(C)CC)cc3-c3cn(C)c(=O)c(F)c3C)C2=O)ncc1C#N [Example 169, (S)-4-ethoxy-6-(1-(7-(2-(ethyl(methyl)amino)ethyl)-5-(5-fluoro-1,4-dimethyl-6-oxo-1,6-dihydropyridin-3-yl)-1-oxo-3,4-dihydroisoquinolin-2(1H)-yl)ethyl)nicotinonitrile] | > 8.00 | 10 to 1000 nM | 10 to 1000 nM |
| CCOc1cc([C@H](C)N2CCc3c(cc(CCN(C)CC)cc3-c3cn(C)c(=O)c(Cl)c3C)C2=O)ncc1C#N [Example 170, (S)-6-(1-(5-(5-chloro-1,4-dimethyl-6-oxo-1,6-dihydropyridin-3-yl)-7-(2-(ethyl(methyl)amino)ethyl)-1-oxo-3,4-dihydroisoquinolin-2(1H)-yl)ethyl)-4-ethoxynicotinonitrile] | > 8.00 | 10 to 1000 nM | 10 to 1000 nM |
| CCOc1cc([C@H](C)N2CCc3c(cc(CCN(C)CC)cc3-c3cn(CC)c(=O)cc3C)C2=O)ncc1C#N [Example 171, (S)-4-ethoxy-6-(1-(7-(2-(ethyl(methyl)amino)ethyl)-5-(1-ethyl-4-methyl-6-oxo-1,6-dihydropyridin-3-yl)-1-oxo-3,4-dihydroisoquinolin-2(1H)-yl)ethyl)nicotinonitrile] | > 8.00 | 10 to 1000 nM | 10 to 1000 nM |
| CCOc1cc([C@H](C)N2CCc3c(cc(CCN(C)CC)cc3-c3cc(C)nnc3C)C2=O)ncc1C#N [Example 173, (S)-6-(1-(5-(3,6-dimethylpyridazin-4-yl)-7-(2-(ethyl(methyl)amino)ethyl)-1-oxo-3,4-dihydroisoquinolin-2(1H)-yl)ethyl)-4-ethoxynicotinonitrile] | > 8.00 | 10 to 1000 nM | 10 to 1000 nM |
| CCOc1cc([C@H](C)N2CCc3c(cc(CCN(C)CC)cc3-c3cn(C(F)F)c(=O)cc3Cl)C2=O)ncc1C#N [Example 174, (S)-6-(1-(5-(4-chloro-1-(difluoromethyl)-6-oxo-1,6-dihydropyridin-3-yl)-7-(2-(ethyl(methyl)amino)ethyl)-1-oxo-3,4-dihydroisoquinolin-2(1H)-yl)ethyl)-4 ethoxynicotinonitrile] | > 8.00 | 10 to 1000 nM | 10 to 1000 nM |

The next lines start with results.

| pIC50 (WDR5) | AC50 [1] | SMILES | AC50 (MV4-11 cells) |
| --- | --- | --- | --- |
| 6.00 to 8.00 | 10 to 1000 nM | CCOc1cc(C(C)N2CCc3c(cc(CCN(C)CC)cc3-c3cc(C(C)O)cnc3Cl)C2=O)ncc1C#N (stereo not drawn) [Example 153, 6-(1-(5-(2-chloro-5-(1-hydroxyethyl)pyridin-3-yl)-7-(2-(ethyl(methyl)amino)ethyl)-1-oxo-3,4-dihydroisoquinolin-2(1H)-yl)ethyl)-4-ethoxynicotinonitrile] | 10 to 1000 nM |
| 6.00 to 8.00 | 10 to 1000 nM | CCOc1cc([C@@H](C)N2CCc3c(cc(CCN(C)CC)cc3-c3cc(C)cnc3C)C2=O)ncc1C#N [Example 156, (R)-6-(1-(5-(2,5-dimethylpyridin-3-yl)-7-(2-(ethyl(methyl)amino)ethyl)-1-oxo-3,4-dihydroisoquinolin-2(1H)-yl)ethyl)-4-ethoxynicotinonitrile] | 1000 to 25000 nM |
| > 8.00 | 10 to 1000 nM | CCOc1cc([C@H](C)N2CCc3c(cc(CCN(C)CC)cc3-c3cc(C4CC4)cnc3C)C2=O)ncc1C#N [Example 160, (S)-6-(1-(5-(5-cyclopropyl-2-methylpyridin-3-yl)-7-(2-(ethyl(methyl)amino)ethyl)-1-oxo-3,4-dihydroisoquinolin-2(1H)-yl)ethyl)-4-ethoxynicotinonitrile] | 10 to 1000 nM |
| > 8.00 | 10 to 1000 nM | CCOc1cc([C@H](C)N2CCc3c(cc(CCN(C)CC)cc3-c3cc(N)ncc3C)C2=O)ncc1C#N [Example 162, (S)-6-(1-(5-(2-amino-5-methylpyridin-4-yl)-7-(2-(ethyl(methyl)amino)ethyl)-1-oxo-3,4-dihydroisoquinolin-2(1H)-yl)ethyl)-4-ethoxynicotinonitrile] | 10 to 1000 nM |
| > 8.00 | 10 to 1000 nM | CCOc1cc([C@H](C)N2CCc3c(cc(CCN(C)CC)cc3-c3cc(C)ncc3C)C2=O)ncc1C#N [Example 163, (S)-6-(1-(5-(2,5-dimethylpyridin-4-yl)-7-(2-(ethyl(methyl)amino)ethyl)-1-oxo-3,4-dihydroisoquinolin-2(1H)-yl)ethyl)-4-ethoxynicotinonitrile] | 10 to 1000 nM |
| > 8.00 | 10 to 1000 nM | CCOc1cc([C@H](C)N2CCc3c(cc(CCN(C)CC)cc3-c3cc(C)ncc3Cl)C2=O)ncc1C#N [Example 166, (S)-6-(1-(5-(5-chloro-2-methylpyridin-4-yl)-7-(2-(ethyl(methyl)amino)ethyl)-1-oxo-3,4-dihydroisoquinolin-2(1H)-yl)ethyl)-4-ethoxynicotinonitrile] | 10 to 1000 nM |
| > 8.00 | 10 to 1000 nM | CCOc1cc([C@H](C)N2CCc3c(cc(CCN(C)CC)cc3-c3cc(OC)cnc3C)C2=O)ncc1C#N [Example 167, (S)-4-ethoxy-6-(1-(7-(2-(ethyl(methyl)amino)ethyl)-5-(5-methoxy-2-methylpyridin-3-yl)-1-oxo-3,4-dihydroisoquinolin-2(1H)-yl)ethyl)nicotinonitrile] | 10 to 1000 nM |
| > 8.00 | 10 to 1000 nM | CCOc1cc(C(C)N2CCc3c(cc(CCN(C)CC)cc3-c3cc(Cl)nnc3Cl)C2=O)ncc1C#N (stereo not drawn) [Example 168, 6-(1-(5-(3,6-dichloropyridazin-4-yl)-7-(2-(ethyl(methyl)amino)ethyl)-1-oxo-3,4-dihydroisoquinolin-2(1H)-yl)ethyl)-4-ethoxynicotinonitrile] | 10 to 1000 nM |
| > 8.00 | 10 to 1000 nM | CCOc1cc([C@H](C)N2CCc3c(cc(CCN(C)CC)cc3-c3cc(C)ncc3C(F)F)C2=O)ncc1C#N [Example 172, (S)-6-(1-(5-(5-(difluoromethyl)-2-methylpyridin-4-yl)-7-(2-(ethyl(methyl)amino)ethyl)-1-oxo-3,4-dihydroisoquinolin-2(1H)-yl)ethyl)-4-ethoxynicotinonitrile] | 10 to 1000 nM |
